Where two headings read alike, the source gives them in different places. Each block holds one compound with its values, some of them ahead of it.
Experiments:
BTK wild type = BTK wild type (Homo sapiens (Human), UniProt Q06187); assay: Inhibition assay of BTK kinase activity (HTRF); assay type: biochemical
Procedure: Inhibition Assay of BTK Kinase Activity:
The enzyme reaction mixture of BTK wild type standard HTRF assay contained 1 nM BTK wild type, 1 μM biotin-TK1 peptide, and 30 μM ATP in a buffer. The enzyme reaction were carried out at room temperature for 60 minutes. […] The plates were incubated at room temperature for 60 minutes and then read in the Envision plate reader.

TMD-8 lymphoma xenograft = TMD-8 lymphoma xenograft SCID mouse model; assay type: in vivo; details: BID, 14 days (FIG. 1); for Antitumor effect: Oral
Procedure: Compounds (Compounds 45 and others) alone and its combinations were evaluated against tumor growth in xenograft models in female CB-17 SCID mice. The TMD-8, DoHH2, WSU-DLCL2 tumor cells were maintained in vitro as a suspension culture in RPMI-1640 medium supplemented with 10% heat inactivated fetal calf serum at 37° C. in an atmosphere of 5% CO2 in air. The tumor cells were routinely subcultured twice weekly. The cells growing in an exponential growth phase were harvested and counted for tumor inoculation. Each mouse was inoculated subcutaneously at the right flank with the tumor cells (10×10^6) in 0.2 ml of PBS with Matrigel (1:1) for tumor development. The treatments were started after the average tumor size reached approximately 100-200 mm^3. Each group consisted of 6-10 tumor-bearing mice. The testing article (vehicle, compound or combination) was orally administrated to the mice according to the predetermined doses for 14-days or 21-days. Animal body weight and tumor volume were measured every 2-or 3-days throughout the treatment.

[1] = rats, 40 mg/kg, U.S. FDA NDA 205552 pharmacological review, cited from earlier work
[2] = dogs, 24 mg/kg, U.S. FDA NDA 205552 pharmacological review, cited from earlier work
[3] = all compounds with IC50 of less 10 nM, read-out: IC50 (BTK)

Sequence of BTK wild type (Q06187 whole entry): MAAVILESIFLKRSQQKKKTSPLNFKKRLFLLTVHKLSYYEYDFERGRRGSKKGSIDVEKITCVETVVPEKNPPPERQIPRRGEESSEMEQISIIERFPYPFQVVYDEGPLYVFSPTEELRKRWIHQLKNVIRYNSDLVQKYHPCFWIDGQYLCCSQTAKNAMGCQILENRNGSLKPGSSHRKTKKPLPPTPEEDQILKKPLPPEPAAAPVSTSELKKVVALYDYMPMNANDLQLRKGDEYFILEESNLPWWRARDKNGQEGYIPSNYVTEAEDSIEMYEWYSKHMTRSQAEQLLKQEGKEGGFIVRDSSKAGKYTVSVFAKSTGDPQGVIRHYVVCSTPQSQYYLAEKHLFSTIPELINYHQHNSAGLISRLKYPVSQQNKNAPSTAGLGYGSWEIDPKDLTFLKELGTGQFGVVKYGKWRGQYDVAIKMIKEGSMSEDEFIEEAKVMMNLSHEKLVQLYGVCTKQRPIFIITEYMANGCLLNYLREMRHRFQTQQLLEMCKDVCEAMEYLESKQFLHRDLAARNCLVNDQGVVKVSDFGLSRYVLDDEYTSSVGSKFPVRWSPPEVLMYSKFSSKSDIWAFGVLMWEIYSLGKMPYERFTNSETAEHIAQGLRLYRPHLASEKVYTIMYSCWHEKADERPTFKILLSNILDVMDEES

IC50 (BTK wild type; [3]): < 10 nM
IC50 (BTK wild type; read-out: BTK IC50): 2 nM
Structure (SMILES): C=CC(=O)N1CCC[C@@H](n2nc(-c3ccc(Oc4c(F)c(F)cc(F)c4F)cc3F)c3c(N)ncnc32)C1 [Compound 33, 1-((R)-3-(4-amino-3-(2-fluoro-4-(2,3,5,6-tetrafluorophenoxy)phenyl)-1H-pyrazolo[3,4-d]pyrimidin-1-yl)piperidin-1-yl)prop-2-en-1-one]
Antitumor effect (TMD-8 lymphoma xenograft; 10 mg/kg): 56%
Antitumor effect (TMD-8 lymphoma xenograft; 30 mg/kg): 77%
TMD-8 tumor growth suppression (TMD-8 lymphoma xenograft; multiple doses, p.o.): significant TMD-8 tumor growth suppressions were dose-depended

Structure (SMILES): N#CCCN1CC[C@@H](n2nc(-c3ccc(Oc4c(F)c(F)cc(F)c4F)cc3F)c3c(N)ncnc32)C1 [Compound 114, 3-((R)-3-(4-amino-3-(2-fluoro-4-(2,3,5,6-tetrafluorophenoxy)phenyl)-1H-pyrazolo[3,4-d]pyrimidin-1-yl)pyrrolidin-1-yl)propanenitrile]
IC50 (BTK wild type; read-out: BTK IC50): 50 nM

Structure (SMILES): Nc1ncnc2c1c(-c1ccc(Oc3c(F)c(F)cc(F)c3F)cc1F)nn2[C@@H]1CCN(C(=O)NO)C1 [Compound 115, (3R)-3-(4-amino-3-(2-fluoro-4-(2,3,5,6-tetrafluorophenoxy)phenyl)-1H-pyrazolo[3,4-d]pyrimidin-1-yl)-N-hydroxypyrrolidine-1-carboxamide]
IC50 (BTK wild type; read-out: BTK IC50): 13 nM

Structure (SMILES): C=CS(=O)(=O)N1CC[C@@H](n2nc(-c3ccc(Oc4c(F)c(F)cc(F)c4F)cc3F)c3c(N)ncnc32)C1 [Compound 116, 3-(2-fluoro-4-(2,3,5,6-tetrafluorophenoxy)phenyl)-1-((R)-1-(vinylsulfonyl)pyrrolidin-3-yl)-1H-pyrazolo[3,4-d]pyrimidin-4-amine]
IC50 (BTK wild type; [3]): < 10 nM
IC50 (BTK wild type; read-out: BTK IC50): 1 nM

Structure (SMILES): Nc1ncnc2c1c(-c1ccc(Oc3c(F)c(F)cc(F)c3F)cc1F)nn2[C@@H]1CCN(C(=O)C(=O)O)C1 [Compound 117, 2-((R)-3-(4-amino-3-(2-fluoro-4-(2,3,5,6-tetrafluorophenoxy)phenyl)-1H-pyrazolo[3,4-d]pyrimidin-1-yl)pyrrolidin-1-yl)-2-oxoacetic acid]
IC50 (BTK wild type; read-out: BTK IC50): 712 nM

Structure (SMILES): N#CN1CC[C@@H](n2nc(-c3ccc(Oc4c(F)c(F)cc(F)c4F)cc3F)c3c(N)ncnc32)C1 [Compound 118]
IC50 (BTK wild type; read-out: BTK IC50): 57 nM

Structure (SMILES): Nc1ncnc2c1c(-c1ccc(Oc3c(F)c(F)cc(F)c3F)cc1F)nn2[C@@H]1CCN(C(=O)C(Cl)CO)C1 (some centres unmarked) [Compound 119]
IC50 (BTK wild type; read-out: BTK IC50): 83 nM

IC50 (BTK wild type; [3]): < 10 nM
Structure (SMILES): CC#CC(=O)N1CC[C@@H](n2nc(-c3ccc(Oc4cccc(F)c4)cc3F)c3c(N)ncnc32)C1 [Compound 123, 1-((R)-3-(4-amino-3-(2-fluoro-4-(3-fluorophenoxy)phenyl)-1H-pyrazolo[3,4-d]pyrimidin-1-yl)pyrrolidin-1-yl)but-2-yn-1-one]

Structure (SMILES): C=CC(=O)N1CCC[C@@H](n2nc(-c3ccc(Oc4ccccc4)cc3)c3c(N)ncnc32)C1 [ibrutinib]
AUC (area under the curve) ([1]; female): 3300 ng·h/mL
AUC (area under the curve) ([1]; male): 1,000 h*ng/mL
AUC ([2]; female): 1,850 h*ng/mL
AUC ([2]; male): 1,780 h*ng/mL
